Experiments:
[1] = tested on: patients undergoing elective diagnostic coronary angiography (European cohort); experiment: European validation cohort: LC/MS/MS serum erythritol vs 3-year MACE; assay type: in vivo, human
Source text: In a third clinical study (the European Cohort, n=833), serum erythritol levels were quantified by stable isotope dilution LC/MS/MS in samples from sequential patients undergoing elective diagnostic coronary angiography due to (suspected) chronic coronary syndromes enrolled in the observational LipidCardio study between 2016-2018 at the Charité University Hospital, Campus Benjamin Franklin (registered under German Clinical Trial Register (drks.de); identifier: DRKS00020915) with a follow-up for 3 years^49. As a quaternary referral center, Charité University Hospital is centrally located in Europe, and subjects enrolled in the LipidCardio study have large geographic catchment, with residences throughout Europe. eGFR was calculated via CKD-MDRD equation^48. For the European validation cohort, there was a total of 833 samples available with MACE outcome data. All samples were used for the erythritol LC/MS/MS measurement.
Stable-isotope-dilution LC/MS/MS was used for quantification of erythritol, threitol, and 1,5-AHG in human and mouse plasma. Ice cold methanol (800 μL) and internal standards (D6-erythitol and ^13C6-1,5-AHG) were added to the plasma samples (20 μL), followed by vortexing and centrifuging (21,000×g; 4° C. for 15 min). The clear supernatant (800 μL) was transferred into a clean, labeled glass tubes (Borosilicate glass 12×75 mm) and dried in a speed vacuum concentrator (Speed vac plus, SC210, Thermo Sevant). The dry residue was reconstituted in acetic anhydride (100 μL) and 4-Dimethylaminopyridine (DMAP) in pyridine (100 μL; 1 mg/mL), sealed with safety caps, vortexed and heated (45 min at 80° C.) followed with drying under nitrogen. Dried residues were dissolved in HCl in water (0.1 M; 0.5 mL) and extracted with ethyl acetate (2 mL). Ethyl acetate layer was transferred into a clean glass tubes (Borosilicate glass 12×75 mm) and dried under nitrogen. The dry residue was reconstituted in ammonium formate in a mixture of methanol:water (100 μL; 50:50 v/v with 10 mM ammonium formate), tubes were vortexed and liquid was transferred to glass vials with micro-insets and caped. LC/MS/MS analysis was performed on a chromatographic system consisting of two Shimadzu LC-30 AD pumps (Nexera X2), a CTO 20AC oven operating at 30° C., and a SIL-30 AC-MP autosampler in tandem with a triple quadruple mass spectrometer (8050 series, Shimadzu Scientific Instruments, Inc., Columbia, MD, USA). For chromatographic separation, a Kinetex C18 column (50 mm×2.1 mm; […]) (Cat #00B-4462-AN, Phenomenex, Torrance, CA) was used. […] Electrospray ionization in the positive mode was used with multiple reaction monitoring (MRM) for detection of endogenous and stable isotope labeled internal standards. The following transitions were used: m/z 308.0 [M+4xC2OH2+NH4]^+→231.0 for threitol and erythritol, m/z 314.0 [M+4xC2OH2+NH4]^+→237.0 for D6-erythritol; m/z 360.1 [M+4xC2OH2+NH4]^+→273.3 for 1,5AHG; […] [M+4xC2OH2+NH4]^+→279.3 for ^13C6-1,5-AHG; The following ion source parameters were applied: nebulizing gas flow, 3 l/min; heating gas flow, 10 L/min; interface temperature, 300° C.; desolvation line temperature, 250° C.; heat block temperature, 400° C.; and drying gas flow, 10 L/min. Limit of detection (LOD) and limit of quantification (LOQ) were as follow: threitol:0.048 and 0.160 μM; erythritol: 0.026 and 0.089 μM; 1,5-AHG: […]; respectively. Three quality control samples were run with each batch of samples and inter-batch variations expressed as coefficient of variation (CV) were less than 7% for all analytes monitored. Data were collected and analyzed by LabSolution 5.91 software (Shimadzu).
Continuous variables were summarized as median (25th and 75th percentiles), and categorical variables are presented as %. For group comparisons of patient characteristics, Kruskal-Wallis test was performed for numerical data and Chi-Square test for categorical data. […]

dogs = details: dog, in vivo; cited from earlier work

SMILES: OC[C@@H](O)[C@@H](O)CO [erythritol]
- HR with 95% CI ([1]; 3-year MACE per μM of erythritol, adjusted Cox model): 1.16 (1.05-1.30)
- Adjusted HR, 3-year MACE ([1]; erythritol Q2 vs Q1, female): 1.82
- Unadjusted HR, 3-year MACE ([1]; erythritol Q2 vs Q1, female): 1.64
- Adjusted HR, 3-year MACE ([1]; erythritol Q2 vs Q1, male): 0.98
- Unadjusted HR, 3-year MACE ([1]; erythritol Q2 vs Q1, male): 1.22
- Adjusted HR, 3-year MACE ([1]; erythritol Q3 vs Q1, female): 1.66
- Unadjusted HR, 3-year MACE ([1]; erythritol Q3 vs Q1, female): 1.67
- Adjusted HR, 3-year MACE ([1]; erythritol Q3 vs Q1, male): 0.93
- Unadjusted HR, 3-year MACE ([1]; erythritol Q3 vs Q1, male): 2.09
- Adjusted HR, 3-year MACE ([1]; erythritol Q4 vs Q1, female): 2.27 (0.75-6.82)
- Unadjusted HR, 3-year MACE ([1]; erythritol Q4 vs Q1, female): 3.77 (1.61-8.80)
- Adjusted HR, 3-year MACE ([1]; erythritol Q4 vs Q1, male): 2.37
- Unadjusted HR, 3-year MACE ([1]; erythritol Q4 vs Q1, male): 4.92
- increase in the adjusted HR for MACE ([1]; per 1 μM increase in erythritol levels): 16%
- Q4 vs. Q1 HR (95% CI), 3-year MACE ([1]; subgroup Age <70): 3.08 (1.22-7.78)
- Q4 vs. Q1 HR (95% CI), 3-year MACE ([1]; subgroup Age ≥70): 3.49 (2.12-5.73)
- Q4 vs. Q1 HR (95% CI), 3-year MACE ([1]; subgroup CAD): 4.22 (2.58-6.89)
- Q4 vs. Q1 HR (95% CI), 3-year MACE ([1]; subgroup Diabetes): 5.16 (2.4-11.1)
- Q4 vs. Q1 HR (95% CI), 3-year MACE ([1]; subgroup Female): 3.77 (1.61-8.80)
- Q4 vs. Q1 HR (95% CI), 3-year MACE ([1]; subgroup GFR <60 ml/min/1.73 m^3): 5.25 (2.82-9.76)
- Q4 vs. Q1 HR (95% CI), 3-year MACE ([1]; subgroup GFR ≥60 ml/min/1.73 m^3): 2.38 (1.32-4.31)
- Q4 vs. Q1 HR (95% CI), 3-year MACE ([1]; subgroup HDL-c <40 mg/dL): 4.15 (1.91-8.99)
- Q4 vs. Q1 HR (95% CI), 3-year MACE ([1]; subgroup HDL-c ≥40 mg/dL): 4.28 (2.4-7.62)
- Q4 vs. Q1 HR (95% CI), 3-year MACE ([1]; subgroup HbA1C <5.7%): 2.13 (1.06-4.25)
- Q4 vs. Q1 HR (95% CI), 3-year MACE ([1]; subgroup HbA1C ≥5.7%): 5.39 (2.96-9.81)
- Q4 vs. Q1 HR (95% CI), 3-year MACE ([1]; subgroup Hypertension): 6.08 (1.31-28.1)
- Q4 vs. Q1 HR (95% CI), 3-year MACE ([1]; subgroup LDL-c <100 mg/dL): 3.92 (2.25-6.83)
- Q4 vs. Q1 HR (95% CI), 3-year MACE ([1]; subgroup LDL-c ≥100 mg/dL): 4.27 (1.94-9.37)
- Q4 vs. Q1 HR (95% CI), 3-year MACE ([1]; subgroup Male): 4.92 (2.89-8.35)
- Q4 vs. Q1 HR (95% CI), 3-year MACE ([1]; subgroup No CAD): 5.97 (1.75-20.4)
- Q4 vs. Q1 HR (95% CI), 3-year MACE ([1]; subgroup No Diabetes): 2.96 (1.72-5.10)
- Q4 vs. Q1 HR (95% CI), 3-year MACE ([1]; subgroup No Hypertension): 4.97 (3.05-8.09)
- Q4 vs. Q1 HR (95% CI), 3-year MACE ([1]; subgroup No Prior MI): 3.48 (1.77-6.87)
- Q4 vs. Q1 HR (95% CI), 3-year MACE ([1]; subgroup Prior MI): 4.69 (2.54-8.66)
- Q4 vs. Q1 HR (95% CI), 3-year MACE ([1]; subgroup Triglycerides <150): 3.71 (1.93-7.14)
- Q4 vs. Q1 HR (95% CI), 3-year MACE ([1]; subgroup Triglycerides ≥150): 3.85 (1.50-9.87)

SMILES: OC[C@@H](O)[C@H](O)[C@@H](O)CO [xylitol]
- toxicity to dogs (dogs): highly toxic

— patent US20260219274A1, “POLYOL SWEETNERS AND CARDIOVASCULAR AND THROMBOTIC EVENT RISK” (THE CLEVELAND CLINIC FOUNDATION, priority 2023, published 2026)
